From patent publication US8168651B2, “Protein kinase modulators” (Cylene Pharmaceuticals, Inc., priority 2008, dated 2012)
One block for each molecule: values may come before it.

Key:
Assay in all cases: Standardized radiometric kinase assays, percentage of activity at 0.5 μM;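 note: Read-out is ³³P-labelled substrate protein phosphorylated by each kinase, captured on filters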
[1] = target: each individual kinase of the panel (Homo sapiens, UniProt P06493); details: for % Activity: CDK1/cyclinB(h)
[2] = target: each individual kinase of the panel (Homo sapiens, UniProt Q9HBH9); details: for % Activity: Mnk2(h)
[3] = target: each individual kinase of the panel (Homo sapiens, UniProt P17612); details: for % Activity: PKA(h)
[4] = target: each individual kinase of the panel (Homo sapiens, UniProt P49841); details: for % Activity: GSK3β(h)
[5] = target: each individual kinase of the panel (Homo sapiens, UniProt O14965); details: for % Activity: Aurora-A(h)
[6] = target: each individual kinase of the panel (Homo sapiens, UniProt P68400); details: for % Activity: CK2(h)
[7] = target: each individual kinase of the panel (Homo sapiens, UniProt P42345); details: for % Activity: mTOR(h)
[8] = target: each individual kinase of the panel (Homo sapiens, UniProt P43403); details: for % Activity: ZAP-70(h)
[9] = target: each individual kinase of the panel (Homo sapiens, UniProt Q9H2X6); details: for % Activity: HIPK2(h)
[10] = target: each individual kinase of the panel (Homo sapiens, UniProt Q02763); details: for % Activity: Tie2(h)
[11] = target: each individual kinase of the panel (Homo sapiens, UniProt Q06418); details: for % Activity: Rse(h)
[12] = target: each individual kinase of the panel (Homo sapiens, UniProt Q14012); details: for % Activity: CaMKI(h)
[13] = target: each individual kinase of the panel (Homo sapiens, UniProt P00519); details: for % Activity: Abl(h)
[14] = target: each individual kinase of the panel (Homo sapiens, UniProt P04049); details: for % Activity: c-RAF(h)
[15] = target: each individual kinase of the panel (Homo sapiens, UniProt P11362); details: for % Activity: FGFR1(h)
[16] = target: each individual kinase of the panel (Homo sapiens, UniProt Q04759); details: for % Activity: PKCθ(h)
[17] = target: each individual kinase of the panel (Homo sapiens, UniProt P80192); details: for % Activity: MLK1(h)
[18] = target: each individual kinase of the panel (Homo sapiens, UniProt O15530); details: for % Activity: PDK1(h)
[19] = target: each individual kinase of the panel (Homo sapiens, UniProt O14733); details: for % Activity: MKK7β(h)
[20] = target: each individual kinase of the panel (Homo sapiens, UniProt P31749); details: for % Activity: PKBα(h)
[21] = target: each individual kinase of the panel (Homo sapiens, UniProt P07332); details: for % Activity: Fes(h)
[22] = target: each individual kinase of the panel (Homo sapiens, UniProt P24941); details: for % Activity: CDK2/cyclinA(h)
[23] = target: each individual kinase of the panel (Homo sapiens, UniProt O94804); details: for % Activity: LOK(h)
[24] = target: each individual kinase of the panel (Homo sapiens, UniProt Q04912); details: for % Activity: Ron(h)
[25] = target: each individual kinase of the panel (Homo sapiens, UniProt P12931); details: for % Activity: cSRC(h)
[26] = target: each individual kinase of the panel (Homo sapiens, UniProt Q9NYY3); details: for % Activity: Snk(h)
[27] = target: each individual kinase of the panel (Homo sapiens, UniProt Q12866); details: for % Activity: Mer(h)
[28] = target: each individual kinase of the panel (Homo sapiens, UniProt P07333)
[29] = target: each individual kinase of the panel (Homo sapiens, UniProt P41240)

each individual kinase of the panel (Homo sapiens, UniProt P11362), sequence (P11362 22-822 limits assumed): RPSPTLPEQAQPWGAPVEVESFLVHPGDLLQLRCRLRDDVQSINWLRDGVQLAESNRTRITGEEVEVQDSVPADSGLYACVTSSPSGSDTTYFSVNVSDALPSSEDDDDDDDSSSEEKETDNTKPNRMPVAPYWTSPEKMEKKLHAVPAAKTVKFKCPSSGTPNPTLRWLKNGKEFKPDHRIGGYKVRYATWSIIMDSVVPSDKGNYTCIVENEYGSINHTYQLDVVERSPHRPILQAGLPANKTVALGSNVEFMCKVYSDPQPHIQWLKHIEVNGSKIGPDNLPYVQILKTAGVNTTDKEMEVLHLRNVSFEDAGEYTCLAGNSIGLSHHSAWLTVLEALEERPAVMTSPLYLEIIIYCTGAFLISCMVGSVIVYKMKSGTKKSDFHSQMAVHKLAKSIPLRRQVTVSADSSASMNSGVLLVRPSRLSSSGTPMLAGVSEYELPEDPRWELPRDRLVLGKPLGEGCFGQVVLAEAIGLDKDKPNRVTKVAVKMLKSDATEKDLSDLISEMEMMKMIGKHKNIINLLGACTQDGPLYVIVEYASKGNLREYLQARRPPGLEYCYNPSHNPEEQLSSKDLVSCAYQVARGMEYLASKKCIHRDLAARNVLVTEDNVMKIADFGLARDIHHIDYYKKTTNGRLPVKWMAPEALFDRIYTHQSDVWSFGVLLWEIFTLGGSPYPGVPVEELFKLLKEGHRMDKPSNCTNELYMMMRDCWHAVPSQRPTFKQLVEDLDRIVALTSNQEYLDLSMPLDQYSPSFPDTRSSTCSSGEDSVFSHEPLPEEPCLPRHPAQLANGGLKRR
each individual kinase of the panel (Homo sapiens, UniProt Q06418), sequence (Q06418 41-890 limits assumed): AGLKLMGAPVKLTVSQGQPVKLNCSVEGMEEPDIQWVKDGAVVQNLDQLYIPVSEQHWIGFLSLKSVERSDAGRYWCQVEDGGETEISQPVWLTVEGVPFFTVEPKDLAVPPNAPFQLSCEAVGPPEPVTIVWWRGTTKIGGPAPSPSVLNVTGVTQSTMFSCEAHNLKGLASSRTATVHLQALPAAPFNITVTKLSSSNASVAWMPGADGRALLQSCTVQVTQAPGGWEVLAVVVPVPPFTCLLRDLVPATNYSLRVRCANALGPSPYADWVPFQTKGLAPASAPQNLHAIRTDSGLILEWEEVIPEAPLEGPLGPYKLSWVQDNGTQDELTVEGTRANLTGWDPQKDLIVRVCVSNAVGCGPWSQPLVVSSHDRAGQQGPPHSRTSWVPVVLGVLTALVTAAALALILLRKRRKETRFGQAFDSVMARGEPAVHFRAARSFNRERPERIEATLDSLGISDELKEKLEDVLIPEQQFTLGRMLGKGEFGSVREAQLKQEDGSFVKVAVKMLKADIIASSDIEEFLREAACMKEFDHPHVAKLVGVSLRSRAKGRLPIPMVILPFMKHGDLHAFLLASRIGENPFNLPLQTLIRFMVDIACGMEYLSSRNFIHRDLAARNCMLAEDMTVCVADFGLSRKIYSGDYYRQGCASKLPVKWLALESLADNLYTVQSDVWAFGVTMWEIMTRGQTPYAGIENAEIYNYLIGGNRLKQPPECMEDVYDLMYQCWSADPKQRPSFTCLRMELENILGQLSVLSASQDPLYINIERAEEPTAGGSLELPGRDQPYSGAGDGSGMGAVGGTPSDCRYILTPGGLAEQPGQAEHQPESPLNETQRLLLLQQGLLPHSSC
each individual kinase of the panel (Homo sapiens, UniProt O14733), sequence (O14733 2-419 limits assumed): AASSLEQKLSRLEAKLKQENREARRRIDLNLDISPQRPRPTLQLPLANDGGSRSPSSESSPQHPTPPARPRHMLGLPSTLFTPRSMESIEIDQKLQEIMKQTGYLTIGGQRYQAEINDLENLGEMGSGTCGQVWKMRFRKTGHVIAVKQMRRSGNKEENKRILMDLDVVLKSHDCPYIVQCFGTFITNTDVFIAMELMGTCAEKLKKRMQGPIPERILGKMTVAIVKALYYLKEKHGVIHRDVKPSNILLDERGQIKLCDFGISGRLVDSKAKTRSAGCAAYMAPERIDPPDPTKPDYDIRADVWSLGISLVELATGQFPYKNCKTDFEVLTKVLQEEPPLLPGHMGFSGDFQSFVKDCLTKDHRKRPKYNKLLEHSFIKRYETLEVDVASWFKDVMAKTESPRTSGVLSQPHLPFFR
each individual kinase of the panel (Homo sapiens, UniProt Q02763), sequence (Q02763 23-1124 limits assumed): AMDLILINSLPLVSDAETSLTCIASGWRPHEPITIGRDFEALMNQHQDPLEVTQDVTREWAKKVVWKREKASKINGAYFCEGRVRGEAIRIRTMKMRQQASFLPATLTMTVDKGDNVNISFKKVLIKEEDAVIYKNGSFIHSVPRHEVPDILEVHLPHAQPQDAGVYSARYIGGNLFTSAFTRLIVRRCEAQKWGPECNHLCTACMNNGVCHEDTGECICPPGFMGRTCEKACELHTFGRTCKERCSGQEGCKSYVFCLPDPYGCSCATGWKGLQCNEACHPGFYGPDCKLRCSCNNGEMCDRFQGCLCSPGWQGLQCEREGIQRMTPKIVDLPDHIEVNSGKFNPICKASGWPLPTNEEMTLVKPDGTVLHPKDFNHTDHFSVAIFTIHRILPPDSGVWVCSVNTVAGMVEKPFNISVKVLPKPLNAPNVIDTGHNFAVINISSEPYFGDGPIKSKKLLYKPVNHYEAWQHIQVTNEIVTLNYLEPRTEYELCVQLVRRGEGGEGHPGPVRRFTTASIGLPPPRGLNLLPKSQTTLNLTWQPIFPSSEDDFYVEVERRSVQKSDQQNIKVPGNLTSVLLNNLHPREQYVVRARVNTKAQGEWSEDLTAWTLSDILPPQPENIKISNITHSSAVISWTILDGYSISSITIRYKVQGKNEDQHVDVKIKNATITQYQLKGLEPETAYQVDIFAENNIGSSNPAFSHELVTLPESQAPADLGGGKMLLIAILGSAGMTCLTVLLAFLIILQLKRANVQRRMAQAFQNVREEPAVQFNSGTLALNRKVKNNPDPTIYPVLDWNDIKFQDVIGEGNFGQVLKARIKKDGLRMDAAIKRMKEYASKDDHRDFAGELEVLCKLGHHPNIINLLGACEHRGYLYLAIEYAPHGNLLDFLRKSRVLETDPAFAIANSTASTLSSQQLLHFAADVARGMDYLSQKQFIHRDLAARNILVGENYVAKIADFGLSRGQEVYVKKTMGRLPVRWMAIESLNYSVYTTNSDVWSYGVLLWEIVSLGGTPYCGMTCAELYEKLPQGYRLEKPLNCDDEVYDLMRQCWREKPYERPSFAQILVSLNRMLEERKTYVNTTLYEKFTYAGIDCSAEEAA
each individual kinase of the panel (Homo sapiens, UniProt P12931), sequence (P12931 2-536 limits assumed): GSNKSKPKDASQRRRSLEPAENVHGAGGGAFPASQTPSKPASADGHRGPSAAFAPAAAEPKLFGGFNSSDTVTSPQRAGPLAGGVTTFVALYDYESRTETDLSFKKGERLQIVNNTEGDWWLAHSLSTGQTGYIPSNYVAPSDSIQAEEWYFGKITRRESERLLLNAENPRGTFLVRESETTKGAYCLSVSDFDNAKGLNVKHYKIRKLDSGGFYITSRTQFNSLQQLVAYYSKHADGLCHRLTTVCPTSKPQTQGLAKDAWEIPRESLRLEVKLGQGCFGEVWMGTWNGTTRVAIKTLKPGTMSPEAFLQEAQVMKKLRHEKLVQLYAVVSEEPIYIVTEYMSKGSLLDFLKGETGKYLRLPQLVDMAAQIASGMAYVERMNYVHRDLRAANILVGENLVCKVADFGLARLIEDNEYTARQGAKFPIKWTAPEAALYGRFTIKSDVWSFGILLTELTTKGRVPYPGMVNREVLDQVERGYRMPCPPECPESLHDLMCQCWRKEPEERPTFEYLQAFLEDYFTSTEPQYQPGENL
each individual kinase of the panel (Homo sapiens, UniProt Q04912), sequence (Q04912 25-304 limits assumed): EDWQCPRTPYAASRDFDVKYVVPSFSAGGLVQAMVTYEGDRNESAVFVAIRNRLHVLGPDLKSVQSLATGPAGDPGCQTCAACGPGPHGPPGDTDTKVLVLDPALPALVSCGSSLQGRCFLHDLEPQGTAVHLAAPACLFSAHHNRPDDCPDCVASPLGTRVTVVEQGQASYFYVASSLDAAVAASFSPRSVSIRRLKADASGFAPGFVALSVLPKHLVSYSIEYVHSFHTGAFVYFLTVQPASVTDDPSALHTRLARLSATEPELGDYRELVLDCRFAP
each individual kinase of the panel (Homo sapiens, UniProt Q04912), sequence (Q04912 310-1400 limits assumed): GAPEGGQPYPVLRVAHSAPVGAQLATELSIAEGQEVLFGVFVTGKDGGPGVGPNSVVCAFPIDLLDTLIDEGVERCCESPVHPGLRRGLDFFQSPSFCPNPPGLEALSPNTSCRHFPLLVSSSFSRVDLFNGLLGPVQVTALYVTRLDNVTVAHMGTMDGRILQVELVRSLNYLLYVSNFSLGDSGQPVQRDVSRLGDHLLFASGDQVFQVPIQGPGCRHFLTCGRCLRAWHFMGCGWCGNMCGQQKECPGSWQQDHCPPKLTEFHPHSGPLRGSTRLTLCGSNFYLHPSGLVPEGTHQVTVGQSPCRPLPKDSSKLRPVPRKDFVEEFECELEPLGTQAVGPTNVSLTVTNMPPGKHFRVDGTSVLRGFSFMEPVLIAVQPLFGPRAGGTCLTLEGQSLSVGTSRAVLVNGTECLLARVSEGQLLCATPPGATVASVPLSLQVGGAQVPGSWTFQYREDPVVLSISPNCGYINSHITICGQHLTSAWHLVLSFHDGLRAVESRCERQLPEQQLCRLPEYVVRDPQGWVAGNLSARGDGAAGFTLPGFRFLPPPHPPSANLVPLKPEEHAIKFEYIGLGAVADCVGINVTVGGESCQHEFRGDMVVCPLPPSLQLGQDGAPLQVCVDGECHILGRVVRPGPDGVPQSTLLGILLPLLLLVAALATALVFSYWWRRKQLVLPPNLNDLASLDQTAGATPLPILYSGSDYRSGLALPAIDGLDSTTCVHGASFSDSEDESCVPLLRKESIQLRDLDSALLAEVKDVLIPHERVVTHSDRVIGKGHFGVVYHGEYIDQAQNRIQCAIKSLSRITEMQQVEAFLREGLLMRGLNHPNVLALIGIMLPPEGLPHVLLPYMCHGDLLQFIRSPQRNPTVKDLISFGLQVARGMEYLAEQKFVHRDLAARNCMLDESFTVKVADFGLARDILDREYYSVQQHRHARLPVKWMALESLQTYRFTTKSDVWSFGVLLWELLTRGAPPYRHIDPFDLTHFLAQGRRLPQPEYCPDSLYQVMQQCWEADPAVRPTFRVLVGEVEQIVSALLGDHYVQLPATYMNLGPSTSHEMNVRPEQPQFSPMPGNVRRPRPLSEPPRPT

% Activity [1]: 37%
% Activity [2]: 54%
% Activity [3]: 97%
% Activity [4]: 23%
% Activity [5]: 43%
% Activity [6]: 58%
% Activity [7]: 99%
% Activity [8]: 97%
% Activity [9]: −1%
% Activity [10]: 108%
% Activity [11]: 109%
% Activity [12]: 90%
% Activity [13]: 87%
% Activity [14]: 66%
% Activity [15]: 100%
% Activity [16]: 39%
% Activity [17]: 24%
% Activity [18]: 101%
% Activity [19]: 81%
% Activity [20]: 98%
% Activity [21]: 84%
% Activity [22]: 31%
% Activity [23]: 63%
% Activity [24]: 99%
% Activity [25]: 64%
% Activity [26]: 79%
% Activity [27]: 38%
Compound: Clc1ccccc1Nc1nc2c(-c3nnc[nH]3)cccc2c2cnccc12 [A]

% Activity [1]: 18%
% Activity [2]: 33%
% Activity [3]: 100%
% Activity [4]: 25%
% Activity [5]: 77%
% Activity [6]: 48%
% Activity [7]: 101%
% Activity [8]: 106%
% Activity [9]: 2%
% Activity [10]: 93%
% Activity [11]: 87%
% Activity [12]: 62%
% Activity [13]: 92%
% Activity [14]: 69%
% Activity [15]: 93%
% Activity [16]: 83%
% Activity [17]: 77%
% Activity [18]: 88%
% Activity ([28]; Fms(h)): 42%
% Activity [19]: 75%
% Activity [20]: 90%
% Activity [21]: 94%
% Activity [22]: 17%
% Activity [23]: 87%
% Activity [24]: 95%
% Activity [25]: 74%
% Activity [26]: 82%
% Activity [27]: 39%
Compound: NC(=O)c1cccc2c1nc(Nc1cccc(Cl)c1)c1ccncc12 [B]

CDK1/cyclinB percentage of activity [1]: 48%
GSK3B percentage of activity [4]: 44%
AURKA percentage of activity [5]: 6%
mTOR percentage of activity [7]: 15%
ZAP70 percentage of activity [8]: −18%
TIE2 percentage of activity [10]: 1%
TYRO3 percentage of activity [11]: −9%
CAMK1 percentage of activity [12]: −4%
ABL1 percentage of activity [13]: 9%
RAF1 percentage of activity [14]: 31%
FGFR1 percentage of activity [15]: −3%
PRKCT percentage of activity [16]: −11%
MLK1 percentage of activity [17]: 20%
PDK1 percentage of activity [18]: −10%
CSF1R percentage of activity [28]: −74%
MAP2K7 beta percentage of activity [19]: −33%
AKT1 percentage of activity [20]: −4%
FES percentage of activity [21]: −39%
CDK2/cyclinE percentage of activity [22]: −13%
RON percentage of activity [24]: −6%
SRC percentage of activity [25]: −2%
Src(1-530) percentage of activity [25]: −1%
PLK2 percentage of activity [26]: −17%
MER percentage of activity [27]: 54%
CSK percentage of activity [29]: −46%
Compound: C#Cc1cccc(Nc2nc3cc(C(=O)O)ccc3c3cncnc23)c1 [drawing 1135]

CDK1/cyclinB percentage of activity [1]: 84%
Mnk2 percentage of activity [2]: −2%
PKA percentage of activity [3]: −9%
GSK3B percentage of activity [4]: 28%
AURKA percentage of activity [5]: 3%
ZAP70 percentage of activity [8]: 2%
HIPK2 percentage of activity [9]: 96%
TIE2 percentage of activity [10]: −12%
TYRO3 percentage of activity [11]: 22%
CAMK1 percentage of activity [12]: 1%
ABL1 percentage of activity [13]: 20%
RAF1 percentage of activity [14]: 62%
FGFR1 percentage of activity [15]: 23%
PRKCT percentage of activity [16]: 10%
MLK1 percentage of activity [17]: 21%
PDK1 percentage of activity [18]: 8%
CSF1R percentage of activity [28]: −12%
MAP2K7 beta percentage of activity [19]: 7%
AKT1 percentage of activity [20]: 7%
FES percentage of activity [21]: 1%
CDK2/cyclin A percentage of activity [22]: 53%
LOK percentage of activity [23]: 72%
RON percentage of activity [24]: 9%
SRC percentage of activity [25]: 22%
Src(1-530) percentage of activity [25]: 11%
PLK2 percentage of activity [26]: 30%
MER percentage of activity [27]: 86%
CSK percentage of activity [29]: −9%
Compound: C#Cc1cccc(Nc2nc3cc(C(=O)O)ccc3c3cnccc23)c1 [drawing 1137]

CDK1/cyclinB percentage of activity [1]: 63%
Mnk2 percentage of activity [2]: 32%
PKA percentage of activity [3]: −1%
GSK3B percentage of activity [4]: 26%
AURKA percentage of activity [5]: 11%
CK2 alpha 1 percentage of activity [6]: 84%
ZAP70 percentage of activity [8]: −2%
HIPK2 percentage of activity [9]: 89%
TIE2 percentage of activity [10]: 45%
TYRO3 percentage of activity [11]: 2%
CAMK1 percentage of activity [12]: 4%
ABL1 percentage of activity [13]: 14%
RAF1 percentage of activity [14]: 62%
FGFR1 percentage of activity [15]: 17%
PRKCT percentage of activity [16]: 1%
MLK1 percentage of activity [17]: 49%
PDK1 percentage of activity [18]: 7%
CSF1R percentage of activity [28]: 52%
MAP2K7 beta percentage of activity [19]: 12%
AKT1 percentage of activity [20]: 7%
FES percentage of activity [21]: −2%
CDK2/cyclin A percentage of activity [22]: 53%
LOK percentage of activity [23]: 56%
RON percentage of activity [24]: −3%
PLK2 percentage of activity [26]: 9%
MER percentage of activity [27]: 62%
CSK percentage of activity [29]: 14%
Compound: NC(=O)c1ccc2c(c1)nc(Nc1cccc(Cl)c1)c1ccncc12 [drawing 1138]
